Values of other authors, collected in patent US20090099252A1, “NOVEL L[…] AS THERAPEUTIC AGENTS” (priority 2007, published 2009).

System: multi-drug resistant cell line SKVLB-1
Conditions: background statement

## C=C1C[C@H](C)C[C@@H]2CC=C[C@@H](C/C=C\C(=O)O[C@H]([C@@H](O)/C=C/[C@@H]3CC(C)=CCO3)C[C@@H]3O[C@H]3[C@@H](O)C1)O2 [Laulimalide, laulimalide]
  IC50: 1200 nM
